# Results published in patent US10905775B2, “Particulate constructs for release of active agents” (CELATOR PHARMACEUTICALS, INC., priority 2004, dated 2021).
# Key:
# [1] = Nanoparticle size by dynamic light scattering (DLS); format: physicochemical; details: control: unconjugated paclitaxel + VitES + mPEG5-PCL7
# Protocol: A 300 mM sucrose solution is prepared, loaded into a 100 ml gas tight syringe, and fixed on a second syringe pump. […] At the mixer outlet, two samples are collected. The first sample is collected in a scintillation vial and analyzed for particle size by dynamic light scattering (DLS), and the second sample is collected in low temperature freezer vials, and freeze-dried. The freeze-drying cycle is the following: −40° C. overnight, −10° C. for a day, 4° C. for a day, and then room temperature for one day. […] The samples are checked visually for crystals/aggregates formation. […] A freeze-dried sample is dissolved in methanol to dissociate the nanoparticles, and the solution is tested for the presence of THF using CGC. Particle size may be determined by DLS. […] The sample collected in a scintillation vial from the mixer effluent is inserted into the DLS sample cell containing decalin scintillation fluid (maintained at 25° C. using a temperature bath), and left to equilibrate to the cell temperature. The run duration is 60 seconds, replicated three times. The particle size expressed as the hydrodynamic diameter is obtained using an ALV 5000 correlator and a second order cumulant fit.
# [2] = Visual check / description of nanoparticle samples for crystals, aggregates, stability; format: physicochemical; details: control: unconjugated paclitaxel 8 mg + VitES 10 mg + mPEG5-PCL7 in THF mixed against water
# Protocol: A 300 mM sucrose solution is prepared, loaded into a 100 ml gas tight syringe, and fixed on a second syringe pump. […] At the mixer outlet, two samples are collected. The first sample is collected in a scintillation vial and analyzed for particle size by dynamic light scattering (DLS), and the second sample is collected in low temperature freezer vials, and freeze-dried. The freeze-drying cycle is the following: −40° C. overnight, −10° C. for a day, 4° C. for a day, and then room temperature for one day. […] The samples are checked visually for crystals/aggregates formation. […] A freeze-dried sample is dissolved in methanol to dissociate the nanoparticles, and the solution is tested for the presence of THF using CGC.
smiles,measurement,setting,value
CC(=O)O[C@H]1C(=O)[C@@]2(C)[C@H]([C@H](OC(=O)c3ccccc3)[C@]3(O)C[C@H](OC(=O)[C@H](O)[C@@H](NC(=O)c4ccccc4)c4ccccc4)C(C)=C1C3(C)C)[C@]1(OC(C)=O)CO[C@@H]1C[C@@H]2O [paclitaxel],particles detected by Dynamic Light Scattering,[1],no particles were detected
same,time after mixing at which crystals were visible,[2],about 20 minutes
